In US8754038B2, “Template-fixed peptidomimetics with CCR10 antagonistic activity” (priority 2009, dated 2014):
Numbered stars: 1 amine (or outer) side, 2 acyl side, 3 side chain; on linkers, the order of the positions; unused ones are H or OH. Square brackets hold non-standard residues; d marks the D form. Peptide text beside a SMILES is read from it. * marks the point of attachment. X4 = N#Cc1cccc(C[C@@H]2C[C@@H](C(=O)[*:2])N([*:1])C2)c1; Trp(6-Cl) = N[C@@H](Cc1c[nH]c2cc(Cl)ccc12)C(=O)O; Phe(4-CF3) = N[C@@H](Cc1ccc(C(F)(F)F)cc1)C(=O)O; Trp(5-OH) = N[C@@H](Cc1c[nH]c2ccc(O)cc12)C(=O)O; Oic = O=C(O)[C@@H]1C[C@@H]2CCCC[C@@H]2N1; Phe(4-CN) = N#Cc1ccc(C[C@H](N)C(=O)O)cc1; Phe(4-Cl) = N[C@@H](Cc1ccc(Cl)cc1)C(=O)O; Tic(7-OH) = O=C(O)[C@@H]1Cc2ccc(O)cc2CN1; X13 = CC1(C)CC[C@@H](C(=O)[*:2])N1[*:1]; 2Nal = N[C@@H](Cc1ccc2ccccc2c1)C(=O)O; Hyp = O=C(O)[C@@H]1C[C@@H](O)CN1; Tic = O=C(O)[C@@H]1Cc2ccccc2CN1; Benzyl(4-Br) = Brc1ccc(C*)cc1; Pip = O=C(O)[C@@H]1CCCCN1; dPip = O=C(O)[C@H]1CCCCN1; Thz = O=C(O)[C@@H]1CSCN1; Ac5c = NC1(C(=O)O)CCCC1; Dab = NCC[C@H](N)C(=O)O; dAze = O=C(O)[C@H]1CCN1; X8 = Cn1cncc1CCC(=O)*; Aib = CC(C)(N)C(=O)O; Bn = c1ccc(C*)cc1

Tests used:
human CCR10 [1] = molecular target: T1, human CCR10 (Homo sapiens, UniProt P46092); experiment: Calcium flux assay (CCR10 antagonism, CCL27 as agonist); type: cell-based; settings: CCR10 transfected 300-19 murine pre-B cells; CCL27 30 nM
T1 construct: expressed in transfected cells
T1 sequence (P46092 1-362): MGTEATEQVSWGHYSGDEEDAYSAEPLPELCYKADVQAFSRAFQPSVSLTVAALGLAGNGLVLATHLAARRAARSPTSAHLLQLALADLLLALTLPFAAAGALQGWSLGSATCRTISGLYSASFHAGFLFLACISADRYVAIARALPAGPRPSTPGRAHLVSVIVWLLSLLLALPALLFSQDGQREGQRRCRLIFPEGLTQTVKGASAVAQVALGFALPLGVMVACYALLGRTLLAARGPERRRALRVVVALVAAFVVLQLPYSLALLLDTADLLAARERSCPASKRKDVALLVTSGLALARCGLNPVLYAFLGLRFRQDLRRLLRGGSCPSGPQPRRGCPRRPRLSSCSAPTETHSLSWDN
Procedure: (§1) Lyophilized peptides were weighed on a Microbalance (Mettler MX5) and dissolved in aqueous 90% DMSO to a final concentration of 10 mM unless otherwise stated. Stock solutions were kept at +4° C., and protected from light.
(§2) Peptides were assayed for CCR10 antagonism in a calcium flux assay and in a chemotaxis assay using a mouse pre-B cell line 300-19 stably transfected with human CCR10, and with human CCL27 as agonist.
The calcium flux release was assessed using CCR10 transfected 300-19 murine pre-B cells. These cells were labeled as a batch with Calcium4 Reagent (Molecular Devices, Sunnyvale, Calif.) in HBSS buffer for 60 min.
After dispensing 8×10^4 cells in each well of a 384-well black plate, a concentrated solution of the β-hairpin peptidomimetics of this invention in HBSS+0.1% BSA+0.1% DMSO (final concentration) was added to the cells. The entire plate was centrifuged and placed in a Flexstation II (Molecular Devices) automated plate reader. After reading a 20 s baseline, the Flexstation dispensed CCL27 (RnD systems) at a final concentration of 30 nM in HBSS+0.1% BSA onto the cells and calcium flux was measured for an additional 70 s.
Alternatively a FIipR384 (Molecular Devices) was used for read out of the 384-well plates. In this case about 8×10^4 cells were placed in each well, centrifuged, placed in the FlipR and after 5 s of baseline reading, the β-hairpin peptidomimetics in HBSS+0.1% BSA+0.1% DMSO (final concentration) were added. After an incubation time of 5 min, the CCL27 solution was added to the mixture and the calcium flux was measured for 200 s.
The maximum signal was determined from control wells without inhibitor. Percentage of inhibition was calculated from a range of compound concentrations, which were subsequently used to calculate IC50 values (Softmax Pro, Molecular Devices). All steps were carried out at room temperature.

human CCR10 [2] = molecular target: T1, human CCR10; experiment: Chemotaxis assay (CCR10-transfected 300-19 cells, CCL27 gradient); type: cell-based; settings: CCR10-transfected 300-19 murine pre-B cells; 30 nM CCL27 gradient
Procedure: as §1, §2
The chemotactic response of CCR10-transfected 300-19 murine pre-B cells to a gradient of CCL27 (CTACK) was measured using disposable Transwell® assay plates from Costar (5 μm pore size) according to the protocol of the manufacturer. Briefly, cells were grown under sterile conditions at 37° C. with 5% CO2 in flasks containing RPMI+5% FCS, glutamine, penicillin/streptomycin (all media components were from Life Technologies) and the appropriate selection antibiotics (Puromycin, G418 or Tetracycline). For the assay, cells were pelleted by centrifugation, washed once in Dulbecco's phosphate buffered saline (DPBS), and resuspended to give 1×10^6 cells/ml in RPMI+0.5% bovine serum albumin (BSA). 100 μl of cell suspension was applied to the top of the assay filter. The β-hairpin peptidomimetics, diluted in the same assay medium, were added to both top and bottom chambers. The cells were allowed to migrate for 4-6 hours at 37° C. into the bottom chamber of the assay plate containing 30 nM of CCL27 (RnD systems). Migrated cells were counted using a FACS cytometer (Cytomics FC500, Beckman Coulter). Data normalization was performed using the number of any cells that had migrated in the absence of the β-hairpin peptidomimetic and the number of cells that have randomly migrated in absence of CCL27 [these values were taken as 100% (no inhibitory activity) and 0%, respectively]. From a range of compound concentrations IC50 were determined using Prism5 (GraphPad software).

| Structure (SMILES) | IC50 (human CCR10 [1]) [nM] | IC50 (human CCR10 [2]) [nM] |
| --- | --- | --- |
| N#Cc1ccc(C[C@@H]2NC(=O)[C@@H]3C[C@@H](OCc4ccccc4)CN3C(=O)[C@H]3CCCN3C(=O)[C@H](CCC(N)=O)NC(=O)[C@H](Cc3c[nH]c4ccccc34)NC(=O)C3(CCCC3)NC2=O)cc1 [compound 47, cyclo(-Phe(4CN)-Cyp-Trp-Gln-^DPro-Hyp(Bn)-)] (cyclo([Ac5c]WQ[dP][Hyp](Bn)[Phe(4-CN)])) | 21.7 ± 3.9 | – |
| N=C(N)NCCC[C@@H]1NC(=O)[C@H](Cc2c[nH]c3ccccc23)NC(=O)C2(CCCC2)NC(=O)[C@H](Cc2c[nH]c3ccccc23)NC(=O)[C@@H]2Cc3ccccc3CN2C(=O)[C@H]2CCN2C1=O [Ex. 25, cyclo(-Trp-Cyp-Trp-Arg-^DAze-Tic-)] (cyclo([Ac5c]WR[dAze][Tic]W)) | 70.4 ± 19.2 | – |
| NCC[C@@H]1NC(=O)[C@H](Cc2c[nH]c3ccccc23)NC(=O)C2(CCCC2)NC(=O)[C@H](Cc2c[nH]c3cc(Cl)ccc23)NC(=O)[C@@H]2C[C@@H](OCc3ccccc3)CN2C(=O)[C@H]2CCCN2C1=O [compound 48, cyclo(-Trp(6Cl)-Cyp-Trp-Dab-^DPro-Hyp(Bn)-)] (cyclo([Ac5c]W[Dab][dP][Hyp](Bn)[Trp(6-Cl)])) | 8.5 ± 3.5 | 8.6 |
| N#Cc1cccc(C[C@@H]2C[C@H]3C(=O)N[C@@H](Cc4c[nH]c5ccccc45)C(=O)NC4(CCCC4)C(=O)N[C@@H](Cc4c[nH]c5ccccc45)C(=O)N[C@@H](CCN)C(=O)N4CCC[C@@H]4C(=O)N3C2)c1 [compound 40, cyclo(-Trp-Cyp-Trp-Dab-^DPro-Pro((4R)3CNBn)-)] (cyclo([Ac5c]W[Dab][dP][X4]W)) | 27.9 ± 10.5 | 3.8 |
| NCC[C@@H]1NC(=O)[C@H](Cc2c[nH]c3ccccc23)NC(=O)C2(CCCC2)NC(=O)[C@H](Cc2c[nH]c3ccccc23)NC(=O)[C@@H]2C[C@@H](OCc3ccccc3)CN2C(=O)[C@H]2CCCN2C1=O [compound 45, cyclo(-Trp-Cyp-Trp-Dab-^DPro-Hyp(Bn)-)] (cyclo([Ac5c]W[Dab][dP][Hyp](Bn)W)) | 65.8 ± 19.6 | 14 |
| CC1(C)CC[C@H]2C(=O)N[C@@H](Cc3c[nH]c4ccccc34)C(=O)NC3(CCCC3)C(=O)N[C@@H](Cc3c[nH]c4ccccc34)C(=O)N[C@@H](CCN)C(=O)N3CCC[C@@H]3C(=O)N21 [compound 42, cyclo(-Trp-Cyp-Trp-Dab-^DPro-Pro(5,5Me2)-)] (cyclo(W[Ac5c]W[Dab][dP][X13])) | 82.5 ± 30.4 | 14.2 |
| O=C1NC2(CCCC2)C(=O)N[C@@H](Cc2c[nH]c3ccccc23)C(=O)N[C@@H](CO)C(=O)N2CCC[C@@H]2C(=O)N2C[C@H](OCc3ccccc3)C[C@H]2C(=O)N[C@H]1Cc1c[nH]c2ccccc12 [compound 46, cyclo(-Trp-Cyp-Trp-Ser-^DPro-Hyp(Bn)-)] (cyclo([Ac5c]WS[dP][Hyp](Bn)W)) | 12.6 ± 9 | 35.4 |
| CC1(C)NC(=O)[C@H](Cc2c[nH]c3ccccc23)NC(=O)[C@@H]2Cc3ccccc3CN2C(=O)[C@H]2CCCN2C(=O)[C@H](CCCNC(=N)N)NC(=O)[C@H](Cc2c[nH]c3ccccc23)NC1=O [Ex. 1, cyclo(-Trp-Aib-Trp-Arg-^DPro-Tic-)] (cyclo([Aib]WR[dP][Tic]W)) | 226 ± 187 | 94 |
| Cn1cncc1CCC(=O)NCC[C@@H]1NC(=O)[C@H](Cc2c[nH]c3ccccc23)NC(=O)C2(CCCC2)NC(=O)[C@H](Cc2ccc(C(F)(F)F)cc2)NC(=O)[C@@H]2C[C@@H]3CCCC[C@@H]3N2C(=O)[C@H]2CCCN2C1=O [Ex. 108, cyclo(-Phe(4CF3)-Cyp-Trp-Dab(A56)-^DPro-Oic-)] (cyclo([Ac5c]W[Dab](X8)[dP][Oic][Phe(4-CF3)])) | 34.5 ± 17.3 | 2.5 |
| N#Cc1ccc(C[C@@H]2NC(=O)[C@@H]3C[C@@H](OCc4ccccc4)CN3C(=O)[C@H]3CCCCN3C(=O)[C@H](CO)NC(=O)[C@H](Cc3c[nH]c4ccccc34)NC(=O)C3(CCCC3)NC2=O)cc1 [compound 50, cyclo(-Phe(4CN)-Cyp-Trp-Ser-^DPip-Hyp(Bn)-)] (cyclo([Ac5c]WS[dPip][Hyp](Bn)[Phe(4-CN)])) | 0.5 ± 0.2 | 1.8 |
| NCC[C@@H]1NC(=O)[C@H](Cc2c[nH]c3ccccc23)NC(=O)C2(CCCC2)NC(=O)[C@H](Cc2ccc3ccccc3c2)NC(=O)[C@@H]2CCCCN2C(=O)[C@H]2CCCCN2C1=O [Ex. 10, cyclo(-2NaI-Cyp-Trp-Dab-^DPip-Pip-)] (cyclo([2Nal][Ac5c]W[Dab][dPip][Pip])) | 43.2 ± 44.9 | 9.7 |
| NCC[C@@H]1NC(=O)[C@H](Cc2ccc(Cl)cc2)NC(=O)C2(CCCC2)NC(=O)[C@H](Cc2c[nH]c3ccccc23)NC(=O)[C@@H]2C[C@@H](OCc3ccccc3)CN2C(=O)[C@H]2CCCN2C1=O [Ex. 43, cyclo(-Trp-Cyp-Phe(4Cl)-Dab-^DPro-Hyp(Bn)-)] (cyclo([Ac5c][Phe(4-Cl)][Dab][dP][Hyp](Bn)W)) | 39.9 ± 34.8 | – |
| N=C(N)NCCC[C@@H]1NC(=O)[C@H](Cc2c[nH]c3ccccc23)NC(=O)C2(CCCC2)NC(=O)[C@H](Cc2c[nH]c3ccccc23)NC(=O)[C@@H]2CSCN2C(=O)[C@H]2CCCN2C1=O [Ex. 5, cyclo(-Trp-Cyp-Trp-Arg-DPro-Thz-)] (cyclo([Ac5c]WR[dP][Thz]W)) | 70.6 ± 20.1 | – |
| NCC[C@@H]1NC(=O)[C@H](Cc2c[nH]c3ccccc23)NC(=O)C2(CCCC2)NC(=O)[C@H](Cc2ccc(C(F)(F)F)cc2)NC(=O)[C@@H]2C[C@@H](OCc3ccc(Br)cc3)CN2C(=O)[C@H]2CCCN2C1=O [Ex. 54, cyclo(-Phe(4CF3)-Cyp-Trp-Dab-^DPro-Hyp(4BrBn)-)] (cyclo([Ac5c]W[Dab][dP][Hyp](Benzyl(4-Br))[Phe(4-CF3)])) | 22.6 ± 13.6 | – |
| NCC[C@@H]1NC(=O)[C@H](Cc2c[nH]c3ccccc23)NC(=O)C2(CCCC2)NC(=O)[C@H](Cc2c[nH]c3ccccc23)NC(=O)[C@@H]2Cc3ccccc3CN2C(=O)[C@H]2CCN2C1=O [Ex. 26, cyclo(-Trp-Cyp-Trp-Dab-^DAze-Tic-)] (cyclo([Ac5c]W[Dab][dAze][Tic]W)) | 57 ± 26.4 | – |
| N=C(N)NCCC[C@@H]1NC(=O)[C@H](Cc2c[nH]c3ccccc23)NC(=O)C2(CCCC2)NC(=O)[C@H](Cc2c[nH]c3ccc(O)cc23)NC(=O)[C@@H]2Cc3ccccc3CN2C(=O)[C@H]2CCCN2C1=O [Ex. 8, cyclo(-Trp(5OH)-Cyp-Trp-Arg-^DPro-Tic-)] (cyclo([Ac5c]WR[dP][Tic][Trp(5-OH)])) | 52.5 ± 3.5 | – |
| NCC[C@@H]1NC(=O)[C@H](Cc2c[nH]c3ccccc23)NC(=O)C2(CCCC2)NC(=O)[C@H](Cc2c[nH]c3ccccc23)NC(=O)[C@@H]2C[C@@H](O)CN2C(=O)[C@H]2CCCN2C1=O [Ex. 103, cyclo(-Trp-Cyp-Trp-Dab-^DPro-Hyp-)] (cyclo([Ac5c]W[Dab][dP][Hyp]W)) | 190 ± 89.8 | – |
| N=C(N)NCCC[C@@H]1NC(=O)[C@H](Cc2c[nH]c3ccccc23)NC(=O)C2(CCCC2)NC(=O)[C@H](Cc2c[nH]c3ccccc23)NC(=O)[C@@H]2Cc3ccc(O)cc3CN2C(=O)[C@H]2CCCN2C1=O [Ex. 3, cyclo(-Trp-Cyp-Trp-Arg-^DPro-Tic(7OH)—)] (cyclo([Ac5c]WR[dP][Tic(7-OH)]W)) | 78.5 ± 38.6 | – |
